This is an account of results in publication PMC6069857, “Effects of novel HDAC inhibitors on urothelial carcinoma cells” (Clinical Epigenetics, 2018).

In general, CC50 refers to the concentration at which the toxic effect on the cells reaches its halfway point. The low end stands for greater toxicity to the cells, the high end for lower toxicity to the cells. As usually defined, the pIC50 is the IC50 on a negative log10 scale, so that one unit is a factor of ten.

The subject of series [1] is three UCCs (VM-CUB1, UM-UC-3, 639-V). Briefly: High-content analysis-based fluorescent live/dead assay, three UCCs together. Format: cell-based, human. Conditions: HCA live/dead assay, 72 h. The method, then: Live and dead cells were assayed by high-content analysis (HCA). […] After 72 h of treatment, cells were stained with a mixture of Hoechst 33342 (Sigma Aldrich, St. Louis, MO), calcein AM (Merck Millipore, Germany), and propidium iodide (Santa Cruz Biotechnology, Heidelberg) for cell nuclei, live and dead cells. The staining solution was replaced by PBS after 20 min. Images were acquired using ArrayScan XTI Live High Content Platform (Thermo Fisher Scientific Inc., USA) using excitation filters of 386, 485, and 560 nm for Hoechst 33342, calcein AM, and propidium iodide, respectively. The results were analyzed using HCS Studio Cellomics Scan (Thermo Fisher Scientific Inc., USA).

The test system of another series is UC cells. Briefly: Clonogenicity assay with Giemsa staining. Conditions: 2 μM 19i for 48 h, replated. Format: cell-based, human. How it is done: Then, depending on the cell line, 500–1000 cells were seeded in 6-cm plates, and 10 to 15 days later, colonies were washed with PBS, fixed in methanol, and stained with Giemsa (Merck Millipore, Darmstadt, Germany).

In series [2] the test system is UCCs VM-CUB1, UM-UC-3, and 639-V. Particulars: 19i 2 μM, 24 and 48 h. From the text: Caspase activity after inhibitor treatment was quantified by the Caspase-Glo 3/7 assay and normalized to cell viability measured by CellTiter-Glo® reagent (Promega, Mannheim, Germany) as previously described. Briefly, following exposure to inhibitors, defined aliquots of trypsinized cells were transferred to 96-well plates for viability and caspase-3/7 measurements according to the manufacturer’s protocol.

Series [3] has the same test system. Briefly: Western blot of cleaved PARP. Format: cell-based, human. Conditions: 19i 2 μM, 48 h; especially in 639-V. How it is done:
Total protein extraction, purification of histones, and Western blot analysis were performed as previously described. Briefly, cells were incubated for 30 min on ice in RIPA-buffer (150 mM NaCl, 1% Triton X-100, 0.5% desoxycholate, 1% Nonidet P-40, 0.1% SDS, 1 mM EDTA, 50 mM TRIS (pH 7.6)) containing 10 μl/ml protease inhibitor cocktail (#P-8340, Sigma Aldrich, St. Louis, MO). Histones were extracted for detection of histone H3 and H4 acetylation by a modified published protocol employing sulfuric acid extraction and TCA-precipitation. Concentrations of total protein and histones were determined by BCA protein assay (Thermo Fisher Scientific, Carlsbad, CA). Subsequently, total cell proteins (15 μg) or extracted histones (2 μg) were separated by SDS-PAGE (total proteins 10–12% gels, histones 15% gels), transferred to PVDF membranes (Merck Millipore, Berlin, Germany), and were incubated with primary antibodies (at RT for 1 h or 4 °C overnight, see Additional file 3: Table S2) following blocking with 5% non-fat milk or BSA (bovine serum albumin) in TBST (150 mM NaCl, 10 mM TRIS, pH 7.4 and 0.1% Tween-20). […]

The target in series [4] is T1, HDAC2 (Homo sapiens, UniProt Q92769). Set-up: purchased Reaction Biology Corp. (Malvern, PA). Particulars: previously reported; given for HDAC1/2 together; cited from earlier work.
T1 sequence (Q92769 whole entry): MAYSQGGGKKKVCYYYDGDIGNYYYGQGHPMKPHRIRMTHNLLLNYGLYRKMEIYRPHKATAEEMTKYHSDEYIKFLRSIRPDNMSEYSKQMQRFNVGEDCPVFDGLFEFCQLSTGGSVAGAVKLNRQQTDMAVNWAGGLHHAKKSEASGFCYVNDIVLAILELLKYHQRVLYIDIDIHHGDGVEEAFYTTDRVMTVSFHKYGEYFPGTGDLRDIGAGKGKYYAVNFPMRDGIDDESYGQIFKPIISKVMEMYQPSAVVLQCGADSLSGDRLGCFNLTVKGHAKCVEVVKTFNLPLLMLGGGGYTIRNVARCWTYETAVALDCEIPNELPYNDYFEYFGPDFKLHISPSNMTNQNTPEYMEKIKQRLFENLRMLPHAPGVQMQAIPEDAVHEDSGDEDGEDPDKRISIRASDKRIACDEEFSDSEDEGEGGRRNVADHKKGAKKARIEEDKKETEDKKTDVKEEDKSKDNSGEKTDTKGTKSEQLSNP
A further series deals with HDAC6 (Homo sapiens, UniProt Q9UBN7). Further details: purchased Reaction Biology Corp. (Malvern, PA). Conditions: previously reported; cited from earlier work.
Sequence of HDAC6 (Q9UBN7 whole entry): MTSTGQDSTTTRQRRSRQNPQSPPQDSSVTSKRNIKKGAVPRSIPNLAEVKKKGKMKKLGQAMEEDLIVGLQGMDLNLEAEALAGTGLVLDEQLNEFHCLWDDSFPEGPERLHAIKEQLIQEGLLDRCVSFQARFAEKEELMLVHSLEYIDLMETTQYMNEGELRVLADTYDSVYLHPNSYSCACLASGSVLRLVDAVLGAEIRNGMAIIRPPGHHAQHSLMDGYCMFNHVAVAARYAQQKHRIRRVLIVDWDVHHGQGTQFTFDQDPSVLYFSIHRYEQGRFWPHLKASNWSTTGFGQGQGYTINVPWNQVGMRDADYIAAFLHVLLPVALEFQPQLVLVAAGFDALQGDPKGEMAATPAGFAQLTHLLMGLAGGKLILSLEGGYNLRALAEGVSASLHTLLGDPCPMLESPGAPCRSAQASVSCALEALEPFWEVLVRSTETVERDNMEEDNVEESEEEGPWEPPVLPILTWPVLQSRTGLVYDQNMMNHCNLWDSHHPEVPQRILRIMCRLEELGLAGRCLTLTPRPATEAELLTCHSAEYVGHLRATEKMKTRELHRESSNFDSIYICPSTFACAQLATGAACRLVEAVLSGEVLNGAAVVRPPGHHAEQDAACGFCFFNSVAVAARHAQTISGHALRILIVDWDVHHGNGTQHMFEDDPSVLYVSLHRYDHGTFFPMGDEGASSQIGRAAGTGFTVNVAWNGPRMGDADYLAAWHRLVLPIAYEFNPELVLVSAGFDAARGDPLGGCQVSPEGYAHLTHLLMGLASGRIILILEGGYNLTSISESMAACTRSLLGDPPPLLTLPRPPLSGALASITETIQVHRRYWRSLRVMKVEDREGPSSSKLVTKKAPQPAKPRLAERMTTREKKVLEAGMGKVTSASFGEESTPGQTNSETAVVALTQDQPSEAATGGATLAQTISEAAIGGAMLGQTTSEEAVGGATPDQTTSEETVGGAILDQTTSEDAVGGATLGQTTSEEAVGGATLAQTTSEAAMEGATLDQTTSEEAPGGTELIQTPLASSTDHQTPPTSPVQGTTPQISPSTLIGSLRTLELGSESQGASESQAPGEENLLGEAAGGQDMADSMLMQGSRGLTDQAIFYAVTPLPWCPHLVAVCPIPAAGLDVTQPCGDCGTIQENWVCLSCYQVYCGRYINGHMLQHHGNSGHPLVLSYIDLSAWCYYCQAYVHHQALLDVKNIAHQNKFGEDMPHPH
A further series deals with HDAC1 (Homo sapiens, UniProt Q13547). Briefly: In vitro fluorescence-based HDAC inhibition assay (Reaction Biology). Conditions: read-out: IC50 HDAC1; experiment performed once.
Sequence of HDAC1 (Q13547 whole entry): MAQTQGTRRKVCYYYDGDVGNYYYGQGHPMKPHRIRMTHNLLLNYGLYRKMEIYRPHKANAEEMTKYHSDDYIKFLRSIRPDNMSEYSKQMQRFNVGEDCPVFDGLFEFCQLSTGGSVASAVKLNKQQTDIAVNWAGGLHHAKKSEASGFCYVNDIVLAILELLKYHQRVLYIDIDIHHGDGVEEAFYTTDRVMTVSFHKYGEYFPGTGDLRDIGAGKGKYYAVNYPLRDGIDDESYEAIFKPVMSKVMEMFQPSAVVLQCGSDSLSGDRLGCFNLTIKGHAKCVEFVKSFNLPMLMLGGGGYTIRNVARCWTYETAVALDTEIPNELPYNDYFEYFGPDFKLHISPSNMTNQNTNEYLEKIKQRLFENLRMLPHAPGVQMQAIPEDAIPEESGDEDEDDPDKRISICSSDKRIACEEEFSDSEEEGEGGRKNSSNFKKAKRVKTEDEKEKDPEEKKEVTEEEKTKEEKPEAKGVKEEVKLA
Series [5] deals with T1, HDAC2. Described as above. Conditions: read-out: IC50 HDAC2; experiment performed once.
A further series addresses HDAC8 (Homo sapiens, UniProt Q9BY41). The description is as above. Particulars: read-out: IC50 HDAC8; experiment performed once.
The target of another series is HDAC9 (Homo sapiens, UniProt Q9UKV0). Described as above. Conditions: read-out: IC50 HDAC9; experiment performed once.
Sequence of HDAC9 (Q9UKV0 whole entry): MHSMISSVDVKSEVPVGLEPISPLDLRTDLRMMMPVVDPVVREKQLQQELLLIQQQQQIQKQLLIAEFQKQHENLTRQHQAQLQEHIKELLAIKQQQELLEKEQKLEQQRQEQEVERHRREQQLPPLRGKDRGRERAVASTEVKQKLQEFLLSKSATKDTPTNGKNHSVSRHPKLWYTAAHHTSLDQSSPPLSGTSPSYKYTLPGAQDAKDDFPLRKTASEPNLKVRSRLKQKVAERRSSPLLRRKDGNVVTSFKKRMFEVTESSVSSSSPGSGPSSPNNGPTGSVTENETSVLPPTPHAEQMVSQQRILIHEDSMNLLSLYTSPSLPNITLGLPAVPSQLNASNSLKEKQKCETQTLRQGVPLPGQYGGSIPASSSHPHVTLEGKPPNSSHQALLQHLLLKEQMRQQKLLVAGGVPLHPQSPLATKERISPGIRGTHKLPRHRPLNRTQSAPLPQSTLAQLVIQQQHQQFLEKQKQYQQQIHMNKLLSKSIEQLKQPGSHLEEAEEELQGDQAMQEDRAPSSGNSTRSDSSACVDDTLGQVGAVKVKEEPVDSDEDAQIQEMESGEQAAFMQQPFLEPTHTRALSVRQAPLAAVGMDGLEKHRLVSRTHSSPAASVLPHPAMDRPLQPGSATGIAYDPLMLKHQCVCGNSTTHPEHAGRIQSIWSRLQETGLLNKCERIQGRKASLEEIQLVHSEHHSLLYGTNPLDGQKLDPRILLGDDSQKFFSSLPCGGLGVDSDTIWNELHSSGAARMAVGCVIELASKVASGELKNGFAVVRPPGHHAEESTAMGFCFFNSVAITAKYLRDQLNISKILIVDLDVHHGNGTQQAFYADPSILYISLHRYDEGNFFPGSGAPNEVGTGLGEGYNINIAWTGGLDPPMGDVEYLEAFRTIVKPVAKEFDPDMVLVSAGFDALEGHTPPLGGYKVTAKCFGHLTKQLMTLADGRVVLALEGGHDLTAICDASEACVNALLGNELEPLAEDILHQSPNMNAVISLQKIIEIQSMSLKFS
For the next series, the target named is HDAC10 (Homo sapiens, UniProt Q969S8). The description is as above. Particulars: read-out: IC50 HDAC10; experiment performed once.
Sequence of HDAC10 (Q969S8 whole entry): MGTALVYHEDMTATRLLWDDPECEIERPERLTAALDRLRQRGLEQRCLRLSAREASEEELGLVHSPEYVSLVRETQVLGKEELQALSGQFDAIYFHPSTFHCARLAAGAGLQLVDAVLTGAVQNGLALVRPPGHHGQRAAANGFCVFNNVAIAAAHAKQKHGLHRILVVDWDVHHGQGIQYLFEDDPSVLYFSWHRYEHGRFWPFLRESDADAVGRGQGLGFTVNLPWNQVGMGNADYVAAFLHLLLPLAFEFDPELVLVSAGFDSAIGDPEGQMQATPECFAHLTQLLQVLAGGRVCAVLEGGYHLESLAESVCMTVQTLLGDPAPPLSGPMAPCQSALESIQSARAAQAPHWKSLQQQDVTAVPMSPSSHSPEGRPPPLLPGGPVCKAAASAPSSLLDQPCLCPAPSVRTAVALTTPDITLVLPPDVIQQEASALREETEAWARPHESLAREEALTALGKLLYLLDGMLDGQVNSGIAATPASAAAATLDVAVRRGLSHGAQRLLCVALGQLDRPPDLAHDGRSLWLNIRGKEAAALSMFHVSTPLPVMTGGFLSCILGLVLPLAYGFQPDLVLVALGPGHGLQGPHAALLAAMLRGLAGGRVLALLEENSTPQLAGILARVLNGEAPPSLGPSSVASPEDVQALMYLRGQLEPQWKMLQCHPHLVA
The target of the next series is HDAC11 (Homo sapiens, UniProt Q96DB2). The series is described as above. Particulars: read-out: IC50 HDAC11; experiment performed once.
Sequence of HDAC11 (Q96DB2 whole entry): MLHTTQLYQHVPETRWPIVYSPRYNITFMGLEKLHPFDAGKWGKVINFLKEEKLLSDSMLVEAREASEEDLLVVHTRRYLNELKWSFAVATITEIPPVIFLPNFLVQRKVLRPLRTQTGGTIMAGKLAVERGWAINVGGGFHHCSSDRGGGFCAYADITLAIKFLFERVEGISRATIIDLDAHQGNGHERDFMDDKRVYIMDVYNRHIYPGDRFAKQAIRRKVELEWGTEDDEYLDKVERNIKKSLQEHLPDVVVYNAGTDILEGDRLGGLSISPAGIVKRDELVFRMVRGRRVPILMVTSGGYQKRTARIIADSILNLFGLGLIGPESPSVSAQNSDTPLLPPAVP

Each structure is given as a SMILES string. pIC50: −log10 of the molar value.

Sequence of HDAC8 (Q9BY41 whole entry): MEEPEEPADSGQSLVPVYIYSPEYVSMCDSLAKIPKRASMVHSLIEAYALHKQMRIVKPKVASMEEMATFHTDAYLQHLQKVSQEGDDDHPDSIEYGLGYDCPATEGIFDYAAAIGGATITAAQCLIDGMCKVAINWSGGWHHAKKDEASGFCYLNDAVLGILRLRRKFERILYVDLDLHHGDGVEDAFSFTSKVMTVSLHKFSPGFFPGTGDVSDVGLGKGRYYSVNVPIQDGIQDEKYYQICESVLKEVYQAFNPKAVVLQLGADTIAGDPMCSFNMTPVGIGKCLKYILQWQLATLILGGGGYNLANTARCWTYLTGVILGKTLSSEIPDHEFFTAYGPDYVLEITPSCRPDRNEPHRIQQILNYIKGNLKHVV

Regarding `Cc1cc(C)cc(C(=O)NOCCCCCC(=O)NO)c1` [19i], the cytotoxic concentration (CC50) in series [1] is under 1000 nM. In the series with UC cells, the clonogenic potential result was “impaired the clonogenic potential”. Further, the “caspase 3/7 activity” value in [2] was “significant, albeit moderately increased”. In addition, the PARP cleavage result in [3] was “augmented”. Further, the “in vitro IC50 HDAC2” value on HDAC2 [4] is “sub-micromolar”. Moreover, on HDAC6, the “in vitro IC50 HDAC6” value is given as “sub-micromolar”. Further, the pIC50 is 6.50 on HDAC1; 6.40 at HDAC2 [5]; 5.55 on HDAC8; 3.70 at HDAC9; 6.31 on HDAC10; 3.96 at HDAC11.
